Read-outs that look alike come from different tables or passages of the source. Starred links: 1 amine or outer side, 2 acyl side, 3 side chain; linkers in the order of their positions; H or OH if unused. Non-standard residues stand in square brackets, D forms with d. Residues, ends and D or L forms follow the SMILES beside them. Trp(4-Cl)(βS-Me) = C[C@@H](c1c[nH]c2cccc(Cl)c12)[C@H](N)C(=O)O; dPro(4R-(4-pyridylmethyl)) = O=C(O)[C@H]1C[C@@H](Cc2ccncc2)CN1; Trp(βS-Me,4-F) = C[C@@H](c1c[nH]c2cccc(F)c12)[C@H](N)C(=O)O; Bip(4'-CONH2) = NC(=O)c1ccc(-c2ccc(C[C@H](N)C(=O)O)cc2)cc1; Bip(4'-COOH) = N[C@@H](Cc1ccc(-c2ccc(C(=O)O)cc2)cc1)C(=O)O; Ala(1-bicyclo(1.1.1)pentyl) = N[C@@H](CC12CC(C1)C2)C(=O)O; dPro(4R-Bzl(4-F)) = O=C(O)[C@H]1C[C@@H](Cc2ccc(F)cc2)CN1; dPro(3S-(4-F-Bn)) = O=C(O)[C@@H]1NCC[C@@H]1Cc1ccc(F)cc1; 1Nal(3S-Me) = C[C@@H](c1cccc2ccccc12)[C@H](N)C(=O)O; X4 = O=C([C@H]1[C@@H](Cc2ccncc2)CCN1[*:1])[*:2]; Ala(pyrimidin-5-yl) = N[C@@H](Cc1cncnc1)C(=O)O; Phe(4-COOH) = N[C@@H](Cc1ccc(C(=O)O)cc1)C(=O)O; Bip = N[C@@H](Cc1ccc(-c2ccccc2)cc1)C(=O)O; Phe(4-Br) = N[C@@H](Cc1ccc(Br)cc1)C(=O)O; Pro(cis-4-F) = O=C(O)[C@@H]1C[C@H](F)CN1; Ala(4-THP) = N[C@@H](CC1CCOCC1)C(=O)O; d(αMeF) = C[C@@](N)(Cc1ccccc1)C(=O)O; AEF = NCCOc1ccc(C[C@H](N)C(=O)O)cc1; cisHyp = O=C(O)[C@@H]1C[C@H](O)CN1; d(αMeD) = C[C@@](N)(CC(=O)O)C(=O)O; 3Pal = N[C@@H](Cc1cccnc1)C(=O)O; 4Pal = N[C@@H](Cc1ccncc1)C(=O)O; aThr = C[C@H](O)[C@H](N)C(=O)O; NMeDab = CN[C@@H](CCN)C(=O)O; αMeK = C[C@](N)(CCCCN)C(=O)O; Orn = NCCC[C@H](N)C(=O)O; Dab = NCC[C@H](N)C(=O)O; Aib = CC(C)(N)C(=O)O
Biological target: T1, IL-1β (Homo sapiens, UniProt P01584)
T1 construct: purchased BioLegend 579404
T1 sequence (P01584 117-269): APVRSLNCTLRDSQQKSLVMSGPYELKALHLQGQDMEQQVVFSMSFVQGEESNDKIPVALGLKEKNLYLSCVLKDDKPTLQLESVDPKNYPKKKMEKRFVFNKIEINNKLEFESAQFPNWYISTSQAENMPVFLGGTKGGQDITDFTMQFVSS
Experiment: IL-6 assay in MRC5 cells: inhibition of IL-1β induced IL-6 secretion (AlphaLISA)
Assay type: cell-based
Conditions: inhibition of IL-1β induced IL-6 secretion in MRC5 cells, read-out: MRC5 IC50
Procedure, shortened: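 Compound was pre-incubated 1 h at ambient temperature with recombinant human IL-1β at 2λ EC80 before adding human lung fibroblast MRC5 cells (3000/well) in EMEM with 0.025% BSA. After overnight culture at 37 °C, 5% CO2, secreted IL-6 in conditioned medium was measured by AlphaLISA; IC50 from 4-parameter logistic fits.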

[1] = compound pre-incubated 1 hour with recombinant human IL-1β

SMILES | IC50 [1] [nM] | IC50 [nM]
C[C@@H](c1c[nH]c2cccc(F)c12)[C@@H]1NC(=O)[C@@H]2C[C@H](F)CN2C(=O)CNC(=O)[C@H](Cc2ccc(C(=O)O)cc2)NC(=O)[C@H](Cc2ccncc2)NC(=O)[C@H](Cc2ccc(-c3ccc(C(=O)O)cc3)cc2)NC(=O)[C@H]2[C@@H](Cc3ccncc3)CCN2C(=O)CNC(=O)[C@H](CCN)N(C)C(=O)[C@H](CCC(N)=O)NC(=O)[C@H](Cc2cncnc2)NC(=O)[C@@](C)(CC(=O)O)NC(=O)[C@H](Cc2c[nH]c3ccccc23)NC(=O)[C@H](CO)NC(=O)C(C)(C)NC1=O [Example 235] (cyclo([Bip(4'-COOH)][4Pal][Phe(4-COOH)]G[Pro(cis-4-F)][Trp(βS-Me,4-F)][Aib]SW[d(αMeD)][Ala(pyrimidin-5-yl)]Q[NMeDab]G[X4])) | 0.018 | –
C[C@@H](c1c[nH]c2cccc(F)c12)[C@@H]1NC(=O)[C@@H]2C[C@H](F)CN2C(=O)CNC(=O)[C@H](Cc2ccc(C(=O)O)cc2)NC(=O)[C@H](Cc2ccncc2)NC(=O)[C@H](Cc2ccc(Br)cc2)NC(=O)[C@H]2[C@@H](Cc3ccc(F)cc3)CCN2C(=O)CNC(=O)[C@H](CCN)NC(=O)[C@H](CCC(N)=O)NC(=O)[C@H](Cc2cncnc2)NC(=O)[C@@](C)(CC(=O)O)NC(=O)[C@H](Cc2c[nH]c3ccccc23)NC(=O)[C@H](CO)NC(=O)C(C)(C)NC1=O [Example 299] (cyclo([Phe(4-Br)][4Pal][Phe(4-COOH)]G[Pro(cis-4-F)][Trp(βS-Me,4-F)][Aib]SW[d(αMeD)][Ala(pyrimidin-5-yl)]Q[Dab]G[dPro(3S-(4-F-Bn))])) | 0.012 | –
C[C@@H](c1c[nH]c2cccc(F)c12)[C@@H]1NC(=O)[C@@H]2C[C@H](F)CN2C(=O)CNC(=O)[C@H](Cc2ccc(C(=O)O)cc2)NC(=O)[C@H](CC23CC(C2)C3)NC(=O)[C@H](Cc2ccc(-c3ccc(C(N)=O)cc3)cc2)NC(=O)[C@H]2C[C@@H](Cc3ccncc3)CN2C(=O)CNC(=O)[C@H](CCN)NC(=O)[C@H](CCC(N)=O)NC(=O)[C@H](Cc2cncnc2)NC(=O)[C@@](C)(CC(=O)O)NC(=O)[C@H](Cc2c[nH]c3ccccc23)NC(=O)[C@H](CO)NC(=O)C(C)(C)NC1=O [Example 342] (cyclo([Bip(4'-CONH2)][Ala(1-bicyclo(1.1.1)pentyl)][Phe(4-COOH)]G[Pro(cis-4-F)][Trp(βS-Me,4-F)][Aib]SW[d(αMeD)][Ala(pyrimidin-5-yl)]Q[Dab]G[dPro(4R-(4-pyridylmethyl))])) | – | 0.022
C[C@@H](c1c[nH]c2cccc(Cl)c12)[C@@H]1NC(=O)[C@@H]2C[C@H](F)CN2C(=O)CNC(=O)[C@H](Cc2ccc(C(=O)O)cc2)NC(=O)[C@H](Cc2ccncc2)NC(=O)[C@H](Cc2ccc(-c3ccc(C(=O)O)cc3)cc2)NC(=O)[C@H]2C[C@@H](Cc3ccc(F)cc3)CN2C(=O)CNC(=O)[C@H](CCN)NC(=O)[C@H](CCC(N)=O)NC(=O)[C@H](Cc2cncnc2)NC(=O)C(C)(C)NC(=O)[C@H](Cc2c[nH]c3ccccc23)NC(=O)[C@H](CCC(=O)O)NC(=O)C(C)(C)NC1=O [Example 148] (cyclo([Bip(4'-COOH)][4Pal][Phe(4-COOH)]G[Pro(cis-4-F)][Trp(4-Cl)(βS-Me)][Aib]EW[Aib][Ala(pyrimidin-5-yl)]Q[Dab]G[dPro(4R-Bzl(4-F))])) | – | 0.032
C[C@@H](c1c[nH]c2cccc(F)c12)[C@@H]1NC(=O)[C@@H]2C[C@H](F)CN2C(=O)CNC(=O)[C@H](Cc2ccc(C(=O)O)cc2)NC(=O)[C@H](Cc2ccncc2)NC(=O)[C@H](Cc2ccc(-c3ccc(C(=O)O)cc3)cc2)NC(=O)[C@H]2C[C@@H](Cc3ccc(F)cc3)CN2C(=O)CNC(=O)[C@H](CCN)NC(=O)[C@H](CCC(N)=O)NC(=O)[C@H](Cc2cccnc2)NC(=O)C(C)(C)NC(=O)[C@H](Cc2c[nH]c3ccccc23)NC(=O)[C@H](CCC(=O)O)NC(=O)C(C)(C)NC1=O [Example 72] (cyclo([3Pal]Q[Dab]G[dPro(4R-Bzl(4-F))][Bip(4'-COOH)][4Pal][Phe(4-COOH)]G[Pro(cis-4-F)][Trp(βS-Me,4-F)][Aib]EW[Aib])) | – | 0.027
C[C@@H](c1c[nH]c2cccc(F)c12)[C@@H]1NC(=O)[C@@H]2C[C@H](F)CN2C(=O)CNC(=O)[C@H](Cc2ccc(C(=O)O)cc2)NC(=O)[C@H](CC23CC(C2)C3)NC(=O)[C@H](Cc2ccc(-c3ccc(C(=O)O)cc3)cc2)NC(=O)[C@H]2C[C@@H](Cc3ccncc3)CN2C(=O)CNC(=O)[C@H](CCCN)NC(=O)[C@H](CCC(N)=O)NC(=O)[C@H](Cc2cncnc2)NC(=O)C(C)(C)NC(=O)[C@H](Cc2c[nH]c3ccccc23)NC(=O)[C@H](CO)NC(=O)C(C)(C)NC1=O [Example 109] (cyclo([Bip(4'-COOH)][Ala(1-bicyclo(1.1.1)pentyl)][Phe(4-COOH)]G[Pro(cis-4-F)][Trp(βS-Me,4-F)][Aib]SW[Aib][Ala(pyrimidin-5-yl)]Q[Orn]G[dPro(4R-(4-pyridylmethyl))])) | – | 0.036
C[C@@H](c1cccc2ccccc12)[C@@H]1NC(=O)[C@@H]2C[C@H](F)CN2C(=O)CNC(=O)[C@H](Cc2ccc(C(=O)O)cc2)NC(=O)[C@H](Cc2ccncc2)NC(=O)[C@H](Cc2ccc(-c3ccccc3)cc2)NC(=O)[C@H]2C[C@@H](Cc3ccncc3)CN2C(=O)CNC(=O)[C@H](CCN)NC(=O)[C@H](CCC(N)=O)NC(=O)[C@H](Cc2cncnc2)NC(=O)[C@@](C)(CC(=O)O)NC(=O)[C@H](Cc2c[nH]c3ccccc23)NC(=O)[C@H](CO)NC(=O)C(C)(C)NC1=O [Example 291] (cyclo([Bip][4Pal][Phe(4-COOH)]G[Pro(cis-4-F)][1Nal(3S-Me)][Aib]SW[d(αMeD)][Ala(pyrimidin-5-yl)]Q[Dab]G[dPro(4R-(4-pyridylmethyl))])) | 0.018 | –
C[C@@H](c1c[nH]c2cccc(F)c12)[C@@H]1NC(=O)[C@@H]2C[C@H](O)CN2C(=O)CNC(=O)[C@H](Cc2ccc(C(=O)O)cc2)NC(=O)[C@H](CC23CC(C2)C3)NC(=O)[C@H](Cc2ccc(-c3ccc(C(=O)O)cc3)cc2)NC(=O)[C@H]2C[C@@H](Cc3ccncc3)CN2C(=O)CNC(=O)[C@H](CO)NC(=O)[C@H](CCC(N)=O)NC(=O)[C@H](Cc2cncnc2)NC(=O)[C@@](C)(CC(=O)O)NC(=O)[C@H](Cc2c[nH]c3ccccc23)NC(=O)[C@H](CO)NC(=O)C(C)(C)NC1=O [Example 157] (cyclo([Bip(4'-COOH)][Ala(1-bicyclo(1.1.1)pentyl)][Phe(4-COOH)]G[cisHyp][Trp(βS-Me,4-F)][Aib]SW[d(αMeD)][Ala(pyrimidin-5-yl)]QSG[dPro(4R-(4-pyridylmethyl))])) | – | 0.038
CC(=O)NCCOc1ccc(C[C@@H]2NC(=O)[C@H]3[C@@H](Cc4ccc(F)cc4)CCN3C(=O)CNC(=O)[C@H](CCN)NC(=O)[C@H](CCC(N)=O)NC(=O)[C@H](CC3CCOCC3)NC(=O)[C@@](C)(CC(=O)O)NC(=O)[C@H](Cc3c[nH]c4ccccc34)NC(=O)[C@H](CO)NC(=O)C(C)(C)NC(=O)[C@H]([C@@H](C)c3c[nH]c4cccc(F)c34)NC(=O)[C@@H]3C[C@H](F)CN3C(=O)CNC(=O)[C@H](Cc3ccc(C(=O)O)cc3)NC(=O)[C@H](CC34CC(C3)C4)NC2=O)cc1 [Example 370] (cyclo([AEF](Ac)[Ala(1-bicyclo(1.1.1)pentyl)][Phe(4-COOH)]G[Pro(cis-4-F)][Trp(βS-Me,4-F)][Aib]SW[d(αMeD)][Ala(4-THP)]Q[Dab]G[dPro(3S-(4-F-Bn))])) | – | 0.015
C[C@@H](c1c[nH]c2cccc(F)c12)[C@@H]1NC(=O)[C@@H]2C[C@H](F)CN2C(=O)CNC(=O)[C@H](Cc2ccc(C(=O)O)cc2)NC(=O)[C@H](Cc2ccncc2)NC(=O)[C@H](Cc2ccc(-c3ccc(C(=O)O)cc3)cc2)NC(=O)[C@H]2C[C@@H](Cc3ccncc3)CN2C(=O)CNC(=O)[C@H](CCN)NC(=O)[C@H](CCC(N)=O)NC(=O)[C@@H](Cc2ccccc2)NC(=O)[C@@](C)(CC(=O)O)NC(=O)[C@H](Cc2c[nH]c3ccccc23)NC(=O)[C@H](CO)NC(=O)C(C)(C)NC1=O [Example 243] (cyclo([Bip(4'-COOH)][4Pal][Phe(4-COOH)]G[Pro(cis-4-F)][Trp(βS-Me,4-F)][Aib]SW[d(αMeD)][dF]Q[Dab]G[dPro(4R-(4-pyridylmethyl))])) | 0.022 | –
C[C@@H](c1c[nH]c2cccc(F)c12)[C@@H]1NC(=O)[C@@H]2C[C@H](F)CN2C(=O)CNC(=O)[C@H](Cc2ccc(C(=O)O)cc2)NC(=O)[C@H](Cc2ccncc2)NC(=O)[C@H](Cc2ccc(-c3ccc(C(=O)O)cc3)cc2)NC(=O)[C@H]2C[C@@H](Cc3ccncc3)CN2C(=O)CNC(=O)[C@H](CCN)NC(=O)[C@H](CCC(N)=O)NC(=O)[C@H](CC(=O)O)NC(=O)[C@@](C)(Cc2ccccc2)NC(=O)[C@H](Cc2c[nH]c3ccccc23)NC(=O)[C@H](CO)NC(=O)C(C)(C)NC1=O [Example 259] (cyclo([Bip(4'-COOH)][4Pal][Phe(4-COOH)]G[Pro(cis-4-F)][Trp(βS-Me,4-F)][Aib]SW[d(αMeF)]DQ[Dab]G[dPro(4R-(4-pyridylmethyl))])) | 0.014 | –
C[C@H](O)[C@@H]1NC(=O)C(C)(C)NC(=O)[C@H]([C@@H](C)c2c[nH]c3cccc(F)c23)NC(=O)[C@@H]2C[C@H](F)CN2C(=O)CNC(=O)[C@H](Cc2ccc(C(=O)O)cc2)NC(=O)[C@H](Cc2ccncc2)NC(=O)[C@H](Cc2ccc(-c3ccc(C(=O)O)cc3)cc2)NC(=O)[C@H]2C[C@@H](Cc3ccc(F)cc3)CN2C(=O)CNC(=O)[C@H](CCN)NC(=O)[C@H](CCC(N)=O)NC(=O)[C@H](Cc2cncnc2)NC(=O)[C@](C)(CCCCN)NC(=O)[C@H](Cc2c[nH]c3ccccc23)NC1=O [Example 138] (cyclo([Bip(4'-COOH)][4Pal][Phe(4-COOH)]G[Pro(cis-4-F)][Trp(βS-Me,4-F)][Aib][aThr]W[αMeK][Ala(pyrimidin-5-yl)]Q[Dab]G[dPro(4R-Bzl(4-F))])) | – | 0.021
